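Five compound concentrations were applied to cells in 96-well plates for 48 hours; endpoints were derived by simple linear interpolation of the resulting dose-response curve. Definition used: TGI = concentration required for complete inhibition of growth.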
Assays:
Test in all cases: NCI anticancer screen, dose series, 48 h
SK-MEL-28 melanoma = test system: SK-MEL-28 melanoma
ACHN renal = test system: ACHN renal
MCF7 breast = test system: MCF7 breast
HL-60(TB) leukemia = test system: HL-60(TB) leukemia
HCT-116 colon = test system: HCT-116 colon
UACC-62 melanoma = test system: UACC-62 melanoma
IGROV1 ovarian = test system: IGROV1 ovarian
SNB-19 CNS = test system: SNB-19 CNS
OVCAR-8 ovarian = test system: OVCAR-8 ovarian
SK-OV-3 ovarian = test system: SK-OV-3 ovarian
MDA-N = test system: MDA-N
MDA-MB-231 breast = test system: MDA-MB-231 breast
M14 melanoma = test system: M14 melanoma
NCI-H23 lung = test system: NCI-H23 lung
SF-268 CNS = test system: SF-268 CNS
HCT-15 colon = test system: HCT-15 colon
UO-31 renal = test system: UO-31 renal
SN12C renal = test system: SN12C renal
KM12 colon = test system: KM12 colon
MOLT-4 leukemia = test system: MOLT-4 leukemia
U251 CNS = test system: U251 CNS
SK-MEL-2 melanoma = test system: SK-MEL-2 melanoma
RXF 393 renal = test system: RXF 393 renal
DU-145 prostate = test system: DU-145 prostate
CCRF-CEM leukemia = test system: CCRF-CEM leukemia
SR leukemia = test system: SR leukemia
786-0 renal = test system: 786-0 renal
SF-539 CNS = test system: SF-539 CNS
PC-3 prostate = test system: PC-3 prostate
OVCAR-5 ovarian = test system: OVCAR-5 ovarian
NCI-H460 lung = test system: NCI-H460 lung
SW-620 colon = test system: SW-620 colon
HCC-2998 colon = test system: HCC-2998 colon
HOP-92 NSCLC = test system: HOP-92 NSCLC
HT29 colon = test system: HT29 colon
NCI/ADR-RES ovarian = test system: NCI/ADR-RES ovarian
SK-MEL-5 melanoma = test system: SK-MEL-5 melanoma
K-562 leukemia = test system: K-562 leukemia
A549 NSCLC = test system: A549 NSCLC
HS 578T breast = test system: HS 578T breast
T-47D breast = test system: T-47D breast
A498 renal = test system: A498 renal
HOP-62 NSCLC = test system: HOP-62 NSCLC
OVCAR-3 ovarian = test system: OVCAR-3 ovarian
MALME-3M melanoma = test system: MALME-3M melanoma
TK-10 renal = test system: TK-10 renal
MDA-MB-435 = test system: MDA-MB-435
NCI-H226 lung = test system: NCI-H226 lung
SF-295 CNS = test system: SF-295 CNS
EKVX NSCLC = test system: EKVX NSCLC

CC12CP(=O)(c3ccccc3)CC1c1ccccc1C2c1ccccc1 (stereo not given)
TGI (SK-MEL-28 melanoma): 75 µM
TGI (ACHN renal): 41.1 µM
TGI (MCF7 breast): > 100 µM
TGI (HL-60(TB) leukemia): 28.5 µM
TGI (HCT-116 colon): 30.4 µM
TGI (UACC-62 melanoma): > 100 µM
TGI (IGROV1 ovarian): 46 µM
TGI (SNB-19 CNS): > 100 µM
TGI (OVCAR-8 ovarian): 28.6 µM
TGI (SK-OV-3 ovarian): > 100 µM
TGI (MDA-N): 33.6 µM
TGI (MDA-MB-231 breast): 40.1 µM
TGI (M14 melanoma): 31.8 µM
TGI (NCI-H23 lung): 41.8 µM
TGI (SF-268 CNS): 67 µM
TGI (HCT-15 colon): 27.2 µM
TGI (UO-31 renal): 30.4 µM
TGI (SN12C renal): 32.2 µM
TGI (KM12 colon): 33.6 µM
TGI (MOLT-4 leukemia): 31 µM
TGI (U251 CNS): 36.7 µM
TGI (SK-MEL-2 melanoma): 49.4 µM
TGI (RXF 393 renal): 46.6 µM
TGI (DU-145 prostate): 64 µM
TGI (CCRF-CEM leukemia): 23.5 µM
TGI (SR leukemia): 29.8 µM
TGI (786-0 renal): 32.8 µM
TGI (SF-539 CNS): 34.1 µM
TGI (PC-3 prostate): 27.1 µM
TGI (OVCAR-5 ovarian): > 100 µM
TGI (NCI-H460 lung): 27.6 µM
TGI (SW-620 colon): 33.2 µM
TGI (HCC-2998 colon): 33.9 µM
TGI (HOP-92 NSCLC): 50 µM
TGI (HT29 colon): 28.8 µM
TGI (NCI/ADR-RES ovarian): 32.7 µM
TGI (SK-MEL-5 melanoma): 55.1 µM
TGI (K-562 leukemia): 25.5 µM
TGI (A549 NSCLC): 36.2 µM
TGI (HS 578T breast): > 100 µM
TGI (T-47D breast): 37.5 µM
TGI (A498 renal): > 100 µM
TGI (HOP-62 NSCLC): 35.4 µM
TGI (OVCAR-3 ovarian): 31.7 µM
TGI (MALME-3M melanoma): 30.3 µM
TGI (TK-10 renal): > 100 µM
TGI (MDA-MB-435): 30.1 µM
TGI (NCI-H226 lung): 44.1 µM
TGI (SF-295 CNS): 29.8 µM
TGI (EKVX NSCLC): 44.6 µM

Source: PubChem BioAssay (NCI)
